Values quoted from earlier work as cited in US7098376B2, “Transgenic mouse expressing constitutively active hydrocarbon receptor” (InDex Pharmaceuticals AB, priority 2000, dated 2006).

System: mouse models

For `Clc1cc2c(cc1Cl)Oc1cc(Cl)c(Cl)cc1O2` [TCDD, 2,3,7,8-tetrachlorodibenzo-p-dioxin], which “dose at which weight loss or impaired weight gain are detected” value (mice exposed to TCDD) is on record?
Its value is “higher than 3 μg/kg body weight”.

What about the “acute toxic effects (e.g. lethality or the wasting syndrome)” value (single dose of 3 μg TCDD/kg body weight, mouse models) of the same compound?
Its value is “no acute toxic effects”.
